For assay [1], the system named is hyperhomocysteinemic rats subjected to MCAO. Nature of the assay: CatWalk gait analysis after MCAO. In kind it is in vivo, male Wistar rats. As to conditions: HHcy rats, 7 days after MCAO, NVP-AAM077 1.2 mg/kg. Here is the method: All rats were subjected to a battery of behavioral tests on day 7 (CatWalk), day 8 (cylinder and rotarod tests) and day 9 (adhesive test) after MCAO to evaluate normal gait, motor coordination and sensory motor functions. Habituation and training (3 days) was performed for one week before MCAO. The first two trainings days were before osmotic pump implantation and the third training day was after pump implantation. An experienced observer blinded to the experimental conditions evaluated all behavioral parameters.
Catwalk: An automated quantitative gait analysis system (Catwalk XT 10.5, Noldus) was used to assess deficits in normal gait in the control, hyperhomocysteinemic and NVP-AAM077 treated hyperhomocysteinemic rats as described earlier (Parkkinen et a., 2013, Stroke Res Treat 2013:410972; Wang et al., 2008, J Cereb Blood Flow Metab 28:1936-50). Briefly, rats were trained to walk on a glass platform or walkway (1.3 m long and 90 mm wide) with a fluorescent light reflected internally in the glass floor as the rats cross the walkway, scattering at points where the paws touch the glass. […] The camera recorded three such complete or successful runs across the walkway and the average of the three runs is reported. An experienced observer, blinded to the experimental group, labeled each paw on the recorded video and paw-related parameters were analyzed. […]

In the next assay the test system is cPLA2. The assay is described as follows: cPLA2 activity in WT and GluN2A-KO mouse neuronal lysates. The assay is classed as cell-based, mice. As to conditions: L-homocysteine 50 μM, four hours. As for the experimental part: Neuron cultures were treated with or without L-homocysteine in the presence or absence of pharmacological inhibitors for the time period specified in each experiment. The medium was collected from each experimental plate and centrifuged at 1000 rpm for five minutes to remove cellular debris. Equal amounts (100 μl) of the supernatant from each sample were used to determine the amount of PGE2 using the PGE2 enzyme immunoassay kit according to the manufacturer's instructions. For measurement of cPLA2 activity, the neuronal cells from the above treated conditions were harvested in ice-cold Tris-buffered saline (pH7.4) containing sodium pyrophosphate as phosphatase inhibitor, sonicated three times with five-second bursts and two minutes on ice between intervals. The lysed cell suspensions were centrifuged at 10,000 rpm for 10 minutes and the supernatant removed. Equal amounts of protein from the supernatant (assessed using BCA protein estimation kit) were estimated for activity of cPLA2 using cPLA2 activity assay kit according to the manufacturer's protocol.
For measurement of cPLA2 activity and MCP-1 levels in cell lysates, neuronal lysates were prepared by harvesting neurons in ice-cold Tris-buffered saline (pH 7.4) containing phosphatase inhibitor, sonicated three times in five-second bursts and placed on ice (two minutes) between each burst of sonication. […]

Turning to `C[C@H](NC(c1cccc2[nH]c(=O)c(=O)[nH]c12)P(=O)(O)O)c1ccc(Br)cc1` (stereo partly drawn) [NVP-AAM077, ({[(1S)-1-(4-bromophenyl)ethyl]amino}-(2,3-dioxo-1,4-dihydroquinoxalin-5-yl)methyl)phosphonic acid], in assay [1] (untreated HHcy 0.72±0.15), the “print position of the affected side” value was 1.37±0.097 cm. Moreover, in assay [1] (untreated HHcy 1.06±0.097), the “print area of the affected forepaw” value is 1.41±0.092 cm^2.

As for `N[C@@H](CCS)C(=O)O` [L-homocysteine], the cPLA2 activity entry with cPLA2 (neurons from GluN2A-KO mice) is on record as “cPLA2 activity remain unchanged”; with cPLA2 (neurons from WT mice), “cPLA2 activity increase significantly”.

The record behind these values is patent US11541065B2, “Compositions and methods for treating brain injury” (UNM RAINFOREST INNOVATIONS, priority 2018, dated 2023).
